Results as given in patent US12679839B2, “Cyclin-dependent kinase 7 (CDK7) non-covalent inhibitors” (JANSSEN PHARMACEUTICA NV, priority 2020, dated 2026).

Columns and labels:
[1] = biological target: T1, CDK7/Cyclin H/MAT-1 complex (Homo sapiens, UniProt P50613); assay: Absorbance kinetic assay (20 nM CDK7/Cyclin H/MAT-1 complex); assay type: biochemical; conditions: for IC50: read-out: CDK7 (20 nM) pIC50 (converted)
T1 construct: Human CDK7 (amino acids 1-346); His6 (N); TEV protease cleavage site (N); made in house; host or cells: baculovirus-SF9 insect cells
Experimental: Human CDK7 (amino acids 1-346) containing an N-terminal His6-tag followed by a tobacco etch virus (TEV) protease cleavage site, human MAT1 (amino acids 1-309) and human cyclin H (amino acids 1-323) were co-expressed in the baculovirus-SF9 insect cell expression system to generate a trimeric complex. Cell pellets were collected 72 h post-infection and were resuspended by Dounce homogenization in 20 mM Hepes-NaOH (pH 8.0), 300 mM NaCl, 10% glycerol, 2 mM dithiothreitol DTT), and 20 mM Imidazole supplemented with cOmplete™ Protease Inhibitor Cocktail (Roche) and 25 U/mL Benzonase® Nuclease HC according to the manufacturer's instructions. Cells were lysed by passing through a Microfluidics M110Y Microfluidizer 3 times at 600 kPa followed by centrifugation at 38,000×g at 4° C. for 1 hour. The supernatant was loaded onto a pre-equilibrated HisTrap HP column and eluted in 20 mM Hepes-NaOH (pH 8.0), 50 mM NaCl, 10% glycerol, 2 mM DTT, and 400 mM Imidazole. The eluate was further purified by gel filtration on a Superdex S200 16/60 column and eluted with 20 mM Hepes-NaOH (pH 7.5), 50 mM NaCl, 10% Glycerol, 2 mM DTT. Fractions containing a trimeric complex of CDK7, cyclin H, and MAT1 in a 1:1:1 ratio were pooled and concentrated to 3 mg/mL in a 10 kDa MWCO concentrator, and diluted to a final concentration of 1.6 mg/mL in 11.1 mM Hepes-NaOH (pH 8.0), 27.8 mM NaCl, 1.1 mM DTT and 50% glycerol. […]
Absorbance Kinetic Assay (20 nM CDK7/Cyclin H/MAT-1 Complex)
CDK7 complex catalyzes the ATP-dependent phosphorylation of a peptide substrate CDK7/9-tide that is derived from RNA Pol II to produce phosphorylated peptide and ADP. The kinase reaction product ADP was converted to lactate and NAD^+ in the presence of phosphoenol pyruvate (PEP), NADH and coupling enzymes lactate dehydrogenase (LDH) and pyruvate kinase (PK). CDK7 complex catalytic activity was measured by following the absorbance intensity continuously at 340 nm that corresponds with the depletion of NADH.
Absorbance at 340 nm was followed kinetically at an interval of 2 minutes for 8 hours.
The assay was carried out with 100 μl reaction volume per well in a 384-well plate that was pre-spotted nanoliter volume of compounds by LabCyte Echo 555. Compound dilution plates were made by 2-fold (could vary upon necessity) dilution in DMSO for 11 concentrations plus a DMSO control of uninhibited reaction. 2× substrate and coupling reagent mixture was added to the assay plate followed by an addition of an equal volume of 40 nM CDK7/Cyclin H/MAT-1 complex. After mixing, assay plates were spun at 2000 rpm for 3 minutes and then transferred to the plate reader for data collection.
For reversible inhibitors, the absorbance reaction progress curves were linear. The steady-state rate was derived from the slope of the linear curves. The following equation is applied to determine percent inhibition.
[formula] • νo=max rate (uninhibited rate) • νi=inhibited rate
The IC50 value is calculated by the following equation:
[formula] where νo is the rate in the absence of inhibitor, νmin is the rate at highest inhibitor concentration, and h is the Hill coefficient. Flint Assay (5 nM CDK7/Cyclin H/MAT-1 Complex)

[2] = system: RNA polymerase II Serine 5 phosphorylation (Rpb1 CTD), downstream substrate of CDK7; assay: Imaging-based cellular RNA PolII Ser5 phosphorylation assay in A549 cells; assay type: cell-based, human; conditions: Homo sapiens, A549, 3 h, challenged with compound for 3 hours, read-out: pRNA polII Ser5 (A549) pIC50 (converted)
Description: Dosing curves were fitted using the following equation to obtain IC50: Y=Bottom+(Top−Bottom)/(1+10^((log IC50−X)*Hill slope)) where X=log10 of the compound concentration; top and bottom can be defined by PC and NC respectively. Imaging-Based Cellular RNA PolII Ser5 Phosphorylation Assay
To evaluate inhibition of CDK7 kinase activity, a 384-well automated imaging assay was used. This assay detects Serine 5 phosphorylation on a unique heptapeptide sequence in the C-terminal domain of Rpb1 subunit of RNA polymerase II, the downstream substrate of CDK7. This heptapeptide sequence is repeated up to 52 times in the CTD of Rpb1.
A549 adenocarcinoma human alveolar basal epithelial cells (ATCC, CCL-185), rabbit Phospho-Rpb1 CTD (Ser5) antibody (D9N51 (Cell Signaling Technology)), DMEM (Sigma), Fetal Bovine Serum (Biowest), L-glutamine (Sigma), Penicillin/Streptomycin (Life Technologies), Sodium Pyruvate (Sigma), Hepes (Sigma), poly-D-lysine coated μclear 384 black plates (Greiner), formaldehyde (PolySciences), D-PBS (Sigma), Methanol (Sigma), Alexa Fluor 488 goat anti rabbit IgG secondary antibody (Life Technologies), HCS CellMask™ Deep Red stain (Life Technologies), Hoechst 33258 (Invitrogen).
RNA Polymerase II Serine 5 phosphorylation was detected using a specific rabbit Phospho-Rpb1 CTD (Ser5) antibody. A549 adenocarcinoma human alveolar basal epithelial cells were seeded in 20 μl medium (DMEM supplemented with 1% Fetal Bovine Serum (heat inactivated 30′ 56° C.), 2 mM L-glutamine, 50 U/ml penicillin 50 μg/ml streptomycin, 1 mM sodium pyruvate and 50 mM hepes) at 1000 cells/well and cultured in poly-D-lysine coated μclear 384 black plates for 20 hours at 37° C. and 5% CO2.
After incubation cells were challenged with compound for 3 hours at 37° C. and 5% CO2. DMSO was used as high control and as low control 10 μM of LDC4297 reference compound was used. 40 nl of test compounds and controls were spotted in cell plates using Echo Liquid Handler (Echo 550, Labcyte). Incubation was followed by 20 minutes fixation with 20 μl 10% formaldehyde at room temperature. Medium/formaldehyde solution was removed, plates were washed 3 times with 30 μl D-PBS (w/o Ca^2+ and Ma^2+) and permeabilization was done by adding 20 μl ice cold methanol for 20 minutes. Cells were washed again 3 times with 30 μl D-PBS and 20 μl blocking buffer (25 ml fetal bovine serum in 500 ml D-PBS) was added for 1 hour.
After removing blocking buffer 20 μl 1/1000 primary antibody rabbit. Phospho-Rpb1 CTD (Ser5) antibody was added which binds to the phosphorylated Serine5 of the heptapeptide sequences in the CTD of Rpb1. Primary antibody was removed, and plates were washed 3 times with 30 μl D-PBS followed by addition of 20 μl 1/2000 Alexa Fluor 488 goat anti rabbit IgG secondary antibody for final detection of Phospho-Rpb1 CTD (Ser5) together with 1/5000 HCS CellMask™ Deep Red stain for membrane staining and 1/5000 Hoechst 33258 for nucleus staining. Last, plates were washed 2 times with 30 μl D-PBS and wells were filled with 40 μL D-PBS, plates were sealed (Thermowell sealing tape) and stored at 4° C. until reading. Plates were read with Opera Phenix (Perkin Elmer) with 10× air objective. Data were calculated and analyzed in Phaedra.
IC50 values were calculated using the following formula:
Average value of all HC's and all LC's are used for normalizations. % Effect=100−(sample−LC)/(HC−LC)×100% Control=(sample/HC)×100
A best-fit curve is fitted by a minimum sum of squares method to the plot of % Control vs. compound concentration. From this an IC50 value can be obtained. An estimate of the slope of the plot in terms of the Hill coefficient is also obtained.

T1 sequence (P50613 whole entry, the tested form may be a part): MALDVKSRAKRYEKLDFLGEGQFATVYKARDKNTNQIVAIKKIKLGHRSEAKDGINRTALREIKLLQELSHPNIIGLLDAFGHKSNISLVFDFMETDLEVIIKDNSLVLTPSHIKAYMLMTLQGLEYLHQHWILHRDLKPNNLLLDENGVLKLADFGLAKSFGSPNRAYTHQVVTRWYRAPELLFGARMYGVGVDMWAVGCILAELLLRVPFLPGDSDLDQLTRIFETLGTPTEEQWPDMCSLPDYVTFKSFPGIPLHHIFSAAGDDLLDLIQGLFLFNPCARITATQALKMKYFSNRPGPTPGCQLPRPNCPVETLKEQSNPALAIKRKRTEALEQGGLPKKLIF
T1 sequence (P51946 whole entry partner, the tested form may be a part): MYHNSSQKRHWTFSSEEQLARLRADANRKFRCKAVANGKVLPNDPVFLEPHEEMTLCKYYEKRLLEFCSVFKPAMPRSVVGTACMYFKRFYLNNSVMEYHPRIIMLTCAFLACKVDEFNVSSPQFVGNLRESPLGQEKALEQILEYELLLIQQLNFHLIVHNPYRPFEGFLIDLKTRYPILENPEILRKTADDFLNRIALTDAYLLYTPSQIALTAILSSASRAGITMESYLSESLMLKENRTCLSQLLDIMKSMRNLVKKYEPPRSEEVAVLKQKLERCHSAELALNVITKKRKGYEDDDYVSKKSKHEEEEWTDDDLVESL
T1 sequence (P51948 whole entry partner, the tested form may be a part): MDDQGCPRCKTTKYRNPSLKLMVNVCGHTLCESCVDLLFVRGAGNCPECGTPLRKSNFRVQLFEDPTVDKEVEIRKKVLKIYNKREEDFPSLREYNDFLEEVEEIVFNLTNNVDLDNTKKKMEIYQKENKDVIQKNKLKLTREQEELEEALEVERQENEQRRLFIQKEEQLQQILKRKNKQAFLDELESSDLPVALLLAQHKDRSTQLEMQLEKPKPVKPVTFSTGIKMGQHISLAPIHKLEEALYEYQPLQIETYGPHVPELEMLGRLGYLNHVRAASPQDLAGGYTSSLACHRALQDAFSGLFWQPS

| Structure (SMILES) | IC50 [1] | IC50 [2] | CDK7 (20 nM) pIC50 [1] |
| --- | --- | --- | --- |
| CC[C@@H]1Cc2cnc(NC3CCOCC3)nc2CN1C(=O)[C@H]1CCN(C)C[C@@H]1c1ccccc1 (relative stereo) [Compound 185] | 42.7 nM | 724 nM |  |
| CC[C@H]1Cc2cnc(NC3CCOCC3)nc2CN1C(=O)[C@H]1CCN(C)C[C@@H]1c1ccccc1 (relative stereo) [Compound 186] | > 10000 nM | > 10000 nM |  |
| C[C@H]1CN(C(=O)[C@H]2CCN(C)C[C@@H]2c2ccccc2)Cc2nc(NC3CCOCC3)ncc21 (relative stereo) [Compound 187] | > 10000 nM | > 10000 nM |  |
| C[C@@H]1Cc2cnc(NCc3ccn(C)n3)nc2[C@@H](C)N1C(=O)[C@H]1CCN(C)C[C@@H]1c1ccccc1 (relative stereo) [Compound 197] | 776 nM | 2820 nM |  |
| Cc1cccc([C@@H]2CN(C)CC[C@H]2C(=O)N2Cc3nc(Nc4cnn(C)c4)ncc3[C@@H]3C[C@@H]32)c1 (relative stereo) [Compound 202] | 2340 nM | 6920 nM |  |
| C[C@@H]1Cc2cnc(NC3CCOCC3)nc2CN1C(=O)[C@H]1CCN(C)C[C@@H]1c1ccc(F)cc1 (single isomer, unassigned) [Compound 92b] |  | ~67.6 nM | 7.92 |
| C[C@@H]1Cc2cnc(NC3CCOCC3)nc2CN1C(=O)[C@H]1CCN(C2CC2)C[C@@H]1c1ccccc1 (single isomer, unassigned) [Compound 161] |  | > 10000 nM | 6.74 |
| CC(C)N1CC[C@H](C(=O)N2Cc3nc(NC4CCOCC4)ncc3C[C@H]2C)[C@@H](c2cccc(F)c2)C1 (single isomer, unassigned) [Compound 163] |  | 162 nM | 6.83 |
| CC(C)N1CC[C@@H](C(=O)N2Cc3nc(NC4CCOCC4)ncc3C[C@H]2C)[C@H](c2cccc(F)c2)C1 (single isomer, unassigned) [Compound 164] |  | 4070 nM | 6.06 |
| CC(C)N1CC[C@@H](C(=O)N2Cc3nc(NC4CCOCC4)ncc3C[C@H]2C)[C@H](c2ccc(Cl)c(F)c2)C1 (single isomer, unassigned) [Compound 165] |  | 3240 nM | 6.10 |
| C[C@@H]1Cc2cnc(NC3CCOCC3)nc2[C@@H](C)N1C(=O)[C@H]1CCN(C)C[C@@H]1c1ccccc1 (single isomer, unassigned) [Compound 195a] | 4680 nM | > 10000 nM |  |
| CO[C@]1(C)CC[C@H](Nc2ncc3c(n2)CN(C(=O)[C@H]2CCN(C)C[C@@H]2c2ccccc2)[C@H](C)C3)CC1 [Compound 11] | 13.8 nM | 1350 nM |  |
| C[C@@H]1Cc2cnc(N[C@H]3CC[C@@H](C)CC3)nc2CN1C(=O)[C@H]1CCN(C)C[C@@H]1c1ccccc1 [Compound 14] |  | 479 nM | 7.89 |
| C[C@@H]1Cc2cnc(N[C@H](C)c3ccccn3)nc2CN1C(=O)[C@H]1CCN(C)C[C@@H]1c1ccccc1 [Compound 21] |  | 302 nM | 7.97 |
| C[C@H](Nc1ncc2c(n1)CN(C(=O)[C@H]1CCN(C)C[C@@H]1c1ccccc1)[C@H](C)C2)c1ccccc1 [Compound 23] |  | 302 nM | 7.97 |
| C[C@@H]1Cc2cnc(NC3CC(C)(C)OC(C)(C)C3)nc2CN1C(=O)[C@H]1CCN(C)C[C@@H]1c1ccccc1 [Compound 24] |  | 126 nM | 7.96 |
| C[C@@H]1Cc2cnc(NC3CCN(C4COC4)CC3)nc2CN1C(=O)[C@H]1CCN(C)C[C@@H]1c1ccccc1 [Compound 25] |  | 776 nM | 7.46 |
| C[C@@H]1Cc2cnc(NCC3CCOC3)nc2CN1C(=O)[C@H]1CCN(C)C[C@@H]1c1ccccc1 (some centres unmarked) [Compound 26] |  | 302 nM | 7.85 |
| Cc1ccc(CNc2ncc3c(n2)CN(C(=O)[C@H]2CCN(C)C[C@@H]2c2ccccc2)[C@H](C)C3)cn1 [Compound 27] |  | 2090 nM | 7.50 |
| C[C@@H]1Cc2cnc(NCC(=O)N3CCCCC3)nc2CN1C(=O)[C@H]1CCN(C)C[C@@H]1c1ccccc1 [Compound 28] |  | > 10000 nM | 6.59 |
| CC(C)n1cc(CNc2ncc3c(n2)CN(C(=O)[C@H]2CCN(C)C[C@@H]2c2ccccc2)[C@H](C)C3)cn1 [Compound 30] |  | 3890 nM | 7.03 |
| C[C@@H]1Cc2cnc(NC3CCN(C(=O)CC4CC4)CC3)nc2CN1C(=O)[C@H]1CCN(C)C[C@@H]1c1ccccc1 [Compound 31] |  | ~69.2 nM | 7.81 |
| C[C@@H]1Cc2cnc(NCc3c(F)cccc3F)nc2CN1C(=O)[C@H]1CCN(C)C[C@@H]1c1ccccc1 [Compound 32] |  | 372 nM | 7.9 |
| C[C@@H]1Cc2cnc(NC3CCN(C(=O)C4CC4)CC3)nc2CN1C(=O)[C@H]1CCN(C)C[C@@H]1c1ccccc1 [Compound 33] |  | 162 nM | 7.88 |
| C[C@@H]1Cc2cnc(NCC3CC3)nc2CN1C(=O)[C@H]1CCN(C)C[C@@H]1c1ccccc1 [Compound 34] |  | 275 nM | 7.94 |
